# Measured values published in ChEMBL document CHEMBL5506059, “Cyanomethylquinolones as a New Class of Potential Multitargeting Broad-Spectrum Antibacterial Agents” (J Med Chem, 2024).
# Activity calls are given as the source filed them. No cut-off for these calls is given here.
# Key:
# Erythrocyte = assay: Hemolytic activity in human Red blood cells assessed as concentration required for 5% hemolysis measured after 1.5 hrs by absorbance based assay; type: toxicity, cell-based
# Staphylococcus aureus [1] = assay: Antibacterial activity against Staphylococcus aureus CMCC(B)26001 assessed as inhibition of bacterial growth incubated for 24 hrs; type: functional
# Enterococcus faecalis [2] = assay: Antibacterial activity against vancomycin-resistant Enterococcus faecalis clinical isolate p1-2007225053 assessed as inhibition of bacterial growth incubated for 24 hrs; type: functional
# Cell membrane [3] = assay: Induction of cell membrane permeability in methicillin-resistant Staphylococcus aureus assessed as increase in fluorescence intensity at 1 to 2 ug/ml incubated for 6 hrs by PI staining based fluorescence analysis; type: cell membranes; settings: dose 1-2 µg/ml
# Staphylococcus aureus [4] = assay: Antibacterial activity against Staphylococcus aureus CMCC(B)26003 assessed as inhibition of bacterial growth incubated for 24 hrs; type: functional
# Cell membrane [5] = assay: Induction of cell membrane depolarization in Pseudomonas aeruginosa assessed as increase in fluorescence intensity at 1 ug/ml measured for 30 mins by DiSC35 dye based fluorescence analysis; type: cell membranes; settings: dose 1.0 µg/ml
# Cell membrane [6] = assay: Induction of cell membrane depolarization in methicillin-resistant Staphylococcus aureus assessed as increase in fluorescence intensity at 1 ug/ml measured for 30 mins by DiSC35 dye based fluorescence analysis; type: cell membranes; settings: dose 1.0 µg/ml
# [7] = Cytotoxicity against human normal Squamous epithelial cell (NOK) assessed as inhibition of cell growth measured after 24 hrs by MTT assay; type: toxicity, cell-based; settings: normal squamous epithelial cells (NOK)
# Pseudomonas aeruginosa [8] = assay: Induction of intracellular ROS generation in Pseudomonas aeruginosa assessed as increase in fluorescence intensity at 2 ug/ml incubated for 6 hrs in presence of N-acetyl-L-cysteine by DCFH-DA dye based fluorescence analysis; type: functional, organism-based; settings: dose 2.0 µg/ml
# Pseudomonas aeruginosa [9] = assay: Antibacterial activity against Pseudomonas aeruginosa ATCC 27853 assessed as inhibition of bacterial growth incubated for 24 hrs; type: functional
# Enterococcus faecium = assay: Antibacterial activity against Enterococcus faecium ATCC 19434 assessed as inhibition of bacterial growth incubated for 24 hrs; type: functional
# HUVEC = assay: Cytotoxicity against HUVEC cells assessed as reduction in cell viability at 0.78 to 25 ug/ml measured after 24 hrs by MTT assay; type: toxicity, cell-based; settings: human, dose 0.78-25 µg/ml
# Pseudomonas aeruginosa [10] = assay: Induction of intracellular ROS generation in Pseudomonas aeruginosa assessed as increase in fluorescence intensity at 2 ug/ml incubated for 6 hrs by DCFH-DA dye based fluorescence analysis; type: functional, organism-based; settings: dose 2.0 µg/ml
# Enterococcus faecalis [11] = assay: Potency index, ratio of norfloxacin MIC to test compound MIC for antibacterial activity against vancomycin-resistant Enterococcus faecalis clinical isolate p1-2007225053 assessed as inhibition of bacterial growth incubated for 24 hrs; type: functional
# Enterococcus faecalis [12] = assay: Antibacterial activity against Enterococcus faecalis clinical isolate assessed as inhibition of bacterial growth incubated for 24 hrs; type: functional
# Klebsiella pneumoniae = assay: Antibacterial activity against Klebsiella pneumoniae clinical isolate assessed as inhibition of bacterial growth incubated for 24 hrs; type: functional
# [13] = system: Staphylococcus epidermidis; assay: Antibacterial activity against Staphylococcus epidermidis ATCC 12228 assessed as inhibition of bacterial growth incubated for 24 hrs; type: functional
# Staphylococcus aureus [14] = assay: Resistance development in methicillin resistant Staphylococcus aureus assessed as increase in MIC measured after 20 days; type: functional, organism-based; settings: time 20.0 day
# Staphylococcus aureus [15] = assay: Antibacterial activity against ciprofloxacin-treated Staphylococcus aureus ATCC 6538 assessed as inhibition of bacterial growth measured after 24 hrs; type: functional
# Staphylococcus aureus [16] = assay: Antibacterial activity against Staphylococcus aureus ATCC 6538 assessed as inhibition of bacterial growth incubated for 24 hrs; type: functional
# Staphylococcus aureus [17] = assay: Antibacterial activity against methicillin resistant Staphylococcus aureus clinical isolate assessed as inhibition of bacterial growth incubated for 24 hrs; type: functional
# Pseudomonas aeruginosa [18] = assay: Antibiofilm activity in Pseudomonas aeruginosa assessed as biofilm eradication measured after 24 hrs by crystal violet staining based analysis; type: functional, organism-based; settings: dose 1-2 µg/ml
# Staphylococcus aureus [19] = assay: Antibiofilm activity in methicillin resistant Staphylococcus aureus assessed as biofilm eradication measured after 24 hrs by crystal violet staining based analysis; type: functional, organism-based; settings: dose 1-2 µg/ml
# Staphylococcus aureus [20] = assay: Antibacterial activity against Staphylococcus aureus clinical isolate assessed as inhibition of bacterial growth incubated for 24 hrs; type: functional
# Enterococcus faecalis [21] = assay: Potency index, ratio of ciprofloxacin MIC to test compound MIC for antibacterial activity against vancomycin-resistant Enterococcus faecalis clinical isolate p1-2007225053 assessed as inhibition of bacterial growth incubated for 24 hrs; type: functional
# Staphylococcus aureus [22] = assay: Antibacterial activity against methicillin-resistant Staphylococcus aureus ATCC 43300 assessed as inhibition of bacterial growth incubated for 24 hrs; type: functional
# Cell membrane [23] = assay: Induction of cell membrane permeability in Pseudomonas aeruginosa assessed as increase in fluorescence intensity at 1 to 2 ug/ml incubated for 6 hrs by PI staining based fluorescence analysis; type: cell membranes; settings: dose 1-2 µg/ml
# Acinetobacter baumannii = assay: Antibacterial activity against Acinetobacter baumannii clinical isolate assessed as inhibition of bacterial growth incubated for 24 hrs; type: functional
# Staphylococcus aureus [24] = assay: Antibacterial activity against methicillin resistant Staphylococcus aureus clinical isolate assessed as inhibition of bacterial growth at 1 times MIC incubated under dark condition and measured upto 5 hrs relative to control; type: functional
# [25] = Hemolytic activity in human Red blood cells at 256 ug/ml measured after 1.5 hrs by absorbance based assay relative to control; type: toxicity, cell-based, Erythrocyte; settings: red blood cells (erythrocytes), at 256 µg/mL, read-out: Activity
# Pseudomonas aeruginosa [26] = assay: Antibacterial activity against Pseudomonas aeruginosa clinical isolate assessed as inhibition of bacterial growth incubated for 24 hrs; type: functional
# [27] = Cytotoxicity against human FHC assessed as inhibition of cell growth measured after 24 hrs by MTT assay; type: toxicity, cell-based; settings: FHC cells
# Pseudomonas aeruginosa [28] = assay: Resistance development in Pseudomonas aeruginosa assessed as increase in MIC measured after 20 days; type: functional, organism-based; settings: time 20.0 day
# Streptococcus pyogenes = assay: Antibacterial activity against Streptococcus pyogenes ATCC 19615 assessed as inhibition of bacterial growth incubated for 24 hrs; type: functional
# Staphylococcus aureus [29] = assay: Antibacterial activity against Staphylococcus aureus ATCC 12600 assessed as inhibition of bacterial growth incubated for 24 hrs; type: functional
# Escherichia coli [30] = assay: Antibacterial activity against Escherichia coli clinical isolate assessed as inhibition of bacterial growth incubated for 24 hrs; type: functional
# Pseudomonas aeruginosa [31] = assay: Antibacterial activity against Pseudomonas aeruginosa assessed as reduction in metabolic activity by measuring reduction in fluorescence intensity at 0.5 to 2 times MIC incubated for 6 hrs by alamar blue assay; type: functional, organism-based
# [32] = Cytotoxicity against HUVEC cells assessed as cell viability at 25 ug/ml measured after 24 hrs by MTT assay relative to control; type: toxicity, cell-based; settings: human, at 25 µg/mL, read-out: Activity
# Staphylococcus aureus [33] = assay: Antibacterial activity against Staphylococcus aureus ATCC 25923 assessed as inhibition of bacterial growth incubated for 24 hrs; type: functional
# Enterococcus faecalis [34] = assay: Antibacterial activity against vancomycin-resistant Enterococcus faecalis clinical isolate p1-2007226001 assessed as inhibition of bacterial growth incubated for 24 hrs; type: functional
# L02 = assay: Cytotoxicity against human L02 cells assessed as reduction in cell viability at 0.78 to 25 ug/ml measured after 24 hrs by MTT assay; type: toxicity, cell-based; settings: l02, 24 h, dose 0.78-25 µg/ml
# Escherichia coli [35] = assay: Antibacterial activity against Escherichia coli ATCC 25922 assessed as inhibition of bacterial growth incubated for 24 hrs; type: functional
# Staphylococcus aureus [36] = assay: Antibacterial activity against methicillin resistant Staphylococcus aureus assessed as reduction in metabolic activity by measuring reduction in fluorescence intensity at 0.5 to 2 times MIC incubated for 6 hrs by alamar blue assay; type: functional, organism-based
# Streptococcus pneumoniae = assay: Antibacterial activity against Streptococcus pneumoniae ATCC 6305 assessed as inhibition of bacterial growth incubated for 24 hrs; type: functional
# Cell membrane [37] = assay: Induction of cell membrane damage in methicillin-resistant Staphylococcus aureus assessed as increase in nucleic acid leakage at 0 to 2 ug/ml incubated for 12 hrs by optical density based microplate reader analysis; type: cell membranes; settings: dose 0-2 µg/ml
# Cell membrane [38] = assay: Induction of cell membrane damage in Pseudomonas aeruginosa assessed as increase in nucleic acid leakage at 0 to 2 ug/ml incubated for 12 hrs by optical density based microplate reader analysis; type: cell membranes; settings: dose 0-2 µg/ml
# Staphylococcus aureus [39] = assay: Antibacterial activity against Staphylococcus aureus ATCC 29213 assessed as inhibition of bacterial growth incubated for 24 hrs; type: functional
# Pseudomonas aeruginosa [40] = assay: Antibacterial activity against ciprofloxacin-treated Pseudomonas aeruginosa ATCC 27853 assessed as inhibition of bacterial growth measured after 24 hrs; type: functional
compound,measurement,setting,value
C[C@H]1COc2c(CC#N)c(F)cc3c(=O)c(C(=O)O)cn1c23,HC5,Erythrocyte,> 10000 µg/mL
same,MIC,Staphylococcus aureus [1],0.125 µg/mL
same,MIC,Enterococcus faecalis [2],0.125 µg/mL
same,Activity,Cell membrane [3],Active
same,MIC,Staphylococcus aureus [4],0.125 µg/mL
same,Activity,Cell membrane [5],Active
same,Activity,Cell membrane [6],Active
same,IC50 at 24 h,[7],54 µg/mL
same,Activity,Pseudomonas aeruginosa [8],inactive
same,MIC,Pseudomonas aeruginosa [9],0.25 µg/mL
same,MIC,Enterococcus faecium,0.5 µg/mL
same,Activity,HUVEC,Non-Toxic
same,Activity,Pseudomonas aeruginosa [10],Active
same,Ratio,Enterococcus faecalis [11],8
same,MIC,Enterococcus faecalis [12],2 µg/mL
same,MIC,Klebsiella pneumoniae,1 µg/mL
same,MIC,[13],0.25 µg/mL
same,Activity,Staphylococcus aureus [14],inactive
same,MIC,Staphylococcus aureus [15],2 µg/mL
same,MIC,Staphylococcus aureus [16],0.25 µg/mL
same,MIC,Staphylococcus aureus [17],0.5 µg/mL
same,Activity,Pseudomonas aeruginosa [18],Dose-Dependent Effect
same,Activity,Staphylococcus aureus [19],Dose-Dependent Effect
same,MIC,Staphylococcus aureus [20],0.25 µg/mL
same,Ratio,Enterococcus faecalis [21],2
same,MIC,Staphylococcus aureus [22],0.125 µg/mL
same,Activity,Cell membrane [23],Active
same,MIC,Acinetobacter baumannii,0.25 µg/mL
same,inhibition (INH),Staphylococcus aureus [24],~100%
same,"hemolysis at 1.5 h, 256 ug/ml",[25],< 1%
same,MIC,Pseudomonas aeruginosa [26],0.25 µg/mL
same,IC50 at 24 h,[27],21 µg/mL
same,Activity,Pseudomonas aeruginosa [28],inactive
same,MIC,Streptococcus pyogenes,2 µg/mL
same,MIC,Staphylococcus aureus [29],0.25 µg/mL
same,MIC,Escherichia coli [30],1 µg/mL
same,Activity,Pseudomonas aeruginosa [31],Active
same,"viability at 24 h, 25 ug/ml",[32],> 90%
same,MIC,Staphylococcus aureus [33],0.25 µg/mL
same,MIC,Enterococcus faecalis [34],0.5 µg/mL
same,Activity,L02,Non-Toxic
same,MIC,Escherichia coli [35],0.25 µg/mL
same,Activity,Staphylococcus aureus [36],Active
same,MIC,Streptococcus pneumoniae,0.5 µg/mL
same,Activity,Cell membrane [37],Active
same,Activity,Cell membrane [38],Active
same,MIC,Staphylococcus aureus [39],0.5 µg/mL
same,MIC,Pseudomonas aeruginosa [40],2 µg/mL
